Here are results for eight compounds from patent US9927424B2, “Assays for identifying compounds that modulate bitter taste” (Chromocell Corporation, priority 2013, dated 2018).

The target of one test is T1, TAS2R39 (Homo sapiens, UniProt P59534).
T1 construct: expressed in transfected cells
T1 sequence (P59534 1-338): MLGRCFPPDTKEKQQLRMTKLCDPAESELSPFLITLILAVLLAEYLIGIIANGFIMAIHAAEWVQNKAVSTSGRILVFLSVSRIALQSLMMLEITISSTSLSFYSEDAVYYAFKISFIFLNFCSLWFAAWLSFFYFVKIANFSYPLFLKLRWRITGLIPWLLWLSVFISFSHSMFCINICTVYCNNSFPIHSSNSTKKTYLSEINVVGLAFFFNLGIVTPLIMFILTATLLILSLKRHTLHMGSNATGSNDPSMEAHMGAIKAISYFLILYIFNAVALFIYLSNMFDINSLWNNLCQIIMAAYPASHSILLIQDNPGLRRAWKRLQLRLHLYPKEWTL
The experiment in a line: Calcium fluorescence functional assay, TAS2R39 cell line with mouse Gα15. Type of test: cell-based. As to conditions: for TAS2R39 bitter receptor activity (functional response): 20 mM tastant, change in intracellular calcium; for EC50: approximately, increasing concentrations of tastant. As to the method:
(§1) A panel of cell lines expressing eight specific bitter taste receptors, a subset of the panel of twenty-five bitter receptors described in International Patent Application Publication WO 2010/088633 (see, e.g., Example 26), was used for the purpose of these analyses. Accordingly, each cell line of the panel expressed a human bitter taste receptor and mouse Gα15 signaling protein.
(§2) Each of the Examples below utilized the following functional assay: • Day 1: Stable cell lines were seeded onto black wall/clear bottom 96-well, plates (e.g., Corning, 3904). Approximately 40K cells were added per well and incubated at 37° C., 5% CO2 overnight in cell growth media (DMEM (Sigma, D5796) supplemented with 10% Fetal Bovine Serum (Sigma, 5178), 2 mM Glutamine (Sigma, G7513)). • Day 2: Growth media was discarded and cells were incubated at 37° C., 5% CO2 for 60 minutes in 100 ul of load solution containing 1× Ca-3 dye (Molecular Devices, R8090), 1% DMSO in buffer containing 130 mM NaCl, 2 mM CaCl2, 5 mM KCl, 1.2 mM MgCl2, 10 mM HEPES and 10 mM Glucose (pH 7.0). Probenecid was not included in the load solution. • Functional assay: After dye loading, cell plates were placed in a fluorescent plate reader (e.g., FDSS6000 (Hamamatsu, Japan)) and receptor stimulation was measured by adding 50 ul of 3× concentrated ligand/agonist stock. Fluorescence was monitored continuously for 10 s before agonist addition and for 100-250 s after stimulation with agonist.
(§3) Receptor Activation is defined as follows: • % Activation=[((Maximum signal fluorescence−Minimum signal fluorescence)−(Maximum control fluorescence−Minimum control fluorescence))/(Maximum buffer fluorescence−Minimum buffer fluorescence)]*100 • Functional Response=[(Maximum signal fluorescence−Minimum signal fluorescence)−(Maximum control fluorescence−Minimum control fluorescence)] • Signal fluorescence: refers to the change in fluorescence seen with addition of ligand • Control fluorescence: refers to the change in fluorescence seen with addition of buffer (negative control) • Calcium signals from ligand and control were normalized to the basal fluorescence of the cells prior to the stimulation.
(§4) A concentration analysis was performed and EC50 values were calculated by nonlinear regression using the formula: Y=Bottom+(Top−Bottom)/(1+10^((Log EC50−X)*Hill Slope)), X=log of dose or concentration, Y=Response (increasing as X increases), Top=maximum signal, Bottom=minimum signal. EC50 (half maximal effective concentration) refers to the molar concentration of the agonist which produces 50% of the maximum possible effective response from that agonist.

Test [1] concerns the target T2, TAS2R44 (Homo sapiens, UniProt P59538).
T2 construct: expressed in transfected cells
T2 sequence (P59538 1-309): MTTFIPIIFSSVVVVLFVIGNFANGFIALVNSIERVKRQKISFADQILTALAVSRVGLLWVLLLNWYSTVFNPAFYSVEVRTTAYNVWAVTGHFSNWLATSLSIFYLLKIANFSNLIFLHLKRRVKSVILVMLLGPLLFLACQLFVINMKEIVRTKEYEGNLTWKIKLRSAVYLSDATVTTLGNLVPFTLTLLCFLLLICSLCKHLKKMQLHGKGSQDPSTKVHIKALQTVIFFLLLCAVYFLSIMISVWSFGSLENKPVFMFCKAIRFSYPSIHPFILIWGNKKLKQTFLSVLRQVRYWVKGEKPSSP
As to conditions: PCT/US12/61400; cited from earlier work.

In a further test the target is T3, TAS2R9 (Homo sapiens, UniProt Q9NYW1).
T3 construct: expressed in transfected cells
T3 sequence (Q9NYW1 1-312): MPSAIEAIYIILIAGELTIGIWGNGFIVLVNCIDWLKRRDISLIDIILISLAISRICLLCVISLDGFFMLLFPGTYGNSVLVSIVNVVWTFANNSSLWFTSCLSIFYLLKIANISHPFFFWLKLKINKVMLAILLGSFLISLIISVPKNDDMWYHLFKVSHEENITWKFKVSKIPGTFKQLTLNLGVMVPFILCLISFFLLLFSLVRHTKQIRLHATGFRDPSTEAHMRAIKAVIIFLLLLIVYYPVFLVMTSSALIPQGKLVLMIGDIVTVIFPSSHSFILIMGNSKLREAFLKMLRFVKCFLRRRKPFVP
As to conditions: PCT/US12/61400; cited from earlier work.

The target of another test is T4, TAS2R38 (PAV) (Homo sapiens, UniProt P59533, A49P/I296V).
T4 construct: expressed in transfected cells
T4 sequence (P59533 1-333 A49P/I296V): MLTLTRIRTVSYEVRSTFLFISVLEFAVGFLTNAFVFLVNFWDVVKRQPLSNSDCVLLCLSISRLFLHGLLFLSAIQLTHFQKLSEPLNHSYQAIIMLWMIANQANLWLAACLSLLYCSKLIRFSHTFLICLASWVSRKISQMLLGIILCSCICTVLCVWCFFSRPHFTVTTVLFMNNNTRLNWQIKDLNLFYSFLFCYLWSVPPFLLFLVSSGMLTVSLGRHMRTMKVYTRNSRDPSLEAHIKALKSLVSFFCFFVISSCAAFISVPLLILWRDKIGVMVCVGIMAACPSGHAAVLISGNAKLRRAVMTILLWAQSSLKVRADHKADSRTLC
The experiment in a line: Calcium fluorescence functional assay, TAS2R38 (PAV) cell line with mouse Gα15. Type of test: cell-based. As to conditions: for TAS2R38 (PAV) bitter receptor activity (functional response): 20 mM tastant, change in intracellular calcium; for EC50: approximately, increasing concentrations of tastant. As to the method: as §1, §2, §3, §4

Test [2] addresses T2, TAS2R44. The test can be described thus: Calcium fluorescence functional assay, TAS2R44 cell line with mouse Gα15. In kind it is cell-based. As to conditions: for TAS2R44 bitter receptor activity (functional response): 20 mM tastant, change in intracellular calcium; for EC50: approximately, increasing concentrations of tastant. The procedure: as §1, §2, §3, §4
On the technique in general: A change in cytosolic calcium serves as a functional read-out for many receptors and channels.

The next test has as its target T5, TAS2R14 (Homo sapiens, UniProt Q9NYV8).
T5 construct: expressed in transfected cells
T5 sequence (Q9NYV8 1-317): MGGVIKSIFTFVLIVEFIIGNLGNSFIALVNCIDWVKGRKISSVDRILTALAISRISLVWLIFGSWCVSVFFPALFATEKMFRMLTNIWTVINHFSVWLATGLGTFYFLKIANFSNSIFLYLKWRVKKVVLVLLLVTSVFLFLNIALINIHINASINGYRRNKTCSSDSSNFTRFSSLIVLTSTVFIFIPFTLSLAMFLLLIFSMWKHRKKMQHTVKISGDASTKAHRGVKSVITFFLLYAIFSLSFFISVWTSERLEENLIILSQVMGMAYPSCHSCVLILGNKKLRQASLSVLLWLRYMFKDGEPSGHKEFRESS
The experiment in a line: Calcium fluorescence functional assay, TAS2R14 cell line with mouse Gα15. In kind it is cell-based. As to conditions: for TAS2R14 bitter receptor activity (functional response): 20 mM tastant, change in intracellular calcium; for EC50: approximately, increasing concentrations of tastant. As to the method:
as §1, §2, §3, §4

What is called EC50 is the concentration at which the effect is half-maximal.

For the compound `[Cl-].[K+]` [KCl], at TAS2R39, the “TAS2R39 bitter receptor activity (functional response)” value (shortened to “TAS2R39 bitter receptor activity”) is “strongly and specifically responded”; the EC50 is 5 to 15 mM. In addition, at TAS2R44 [1], the “TAS2R44 response to stimulation, previously shown” value is “specifically respond”. The “TAS2R9 response to stimulation, previously shown” value at TAS2R9 was “specifically respond”. Also, on TAS2R38 (PAV), the “TAS2R38 (PAV) bitter receptor activity (functional response)” value (shortened to “TAS2R38 (PAV) bitter receptor activity”) was “strongly and specifically responded”; the concentration for a half-maximal effect (EC50) was in the range of 5 to 15 mM.

On to `CC(=O)[O-].[K+]` [potassium acetate], for which the “TAS2R39 bitter receptor activity” value at TAS2R39 was “did not induce”. Also, at TAS2R44 [2], the “TAS2R44 bitter receptor activity (functional response)” value (“TAS2R44 bitter receptor activity” for short) is reported as “induced” and the concentration for a half-maximal effect (EC50) was 5 to 10 mM. Moreover, the “TAS2R38 (PAV) bitter receptor activity” value on TAS2R38 (PAV) is listed as “did not induce”. On TAS2R14, the “TAS2R14 bitter receptor activity (functional response)” value (“TAS2R14 bitter receptor activity” for short) was “induced” and the EC50 was 5 to 10 mM.

Turning to `O=C([O-])c1ccccc1.[K+]` [potassium benzoate], at TAS2R39, the “TAS2R39 bitter receptor activity” value was “induced” and the EC50 was 5 to 10 mM. In addition, at TAS2R44 [2], the “TAS2R44 bitter receptor activity” value is given as “induced” and the EC50 fell in the range of 5 to 10 mM. At TAS2R38 (PAV), the “TAS2R38 (PAV) bitter receptor activity” value was “induced” and the EC50 lay within 5 to 10 mM. Moreover, at TAS2R14, the “TAS2R14 bitter receptor activity” value is given as “induced” and the EC50 is 5 to 10 mM.

With `O=C([O-])[C@H](O)[C@@H](O)[C@H](O)[C@H](O)CO.[K+]` [potassium gluconate], the “TAS2R39 bitter receptor activity” value at TAS2R39 is “induced”. At TAS2R44 [2], the “TAS2R44 bitter receptor activity” value was “induced”. Moreover, the “TAS2R38 (PAV) bitter receptor activity” value on TAS2R38 (PAV) is “induced”. The “TAS2R14 bitter receptor activity” value on TAS2R14 is recorded as “induced”.

For the compound `O=[N+]([O-])[O-].[K+]` [potassium nitrate], at TAS2R39, the “TAS2R39 bitter receptor activity” value is given as “induced”. The “TAS2R44 bitter receptor activity” value on TAS2R44 [2] is listed as “induced”. The “TAS2R38 (PAV) bitter receptor activity” value on TAS2R38 (PAV) was “induced”. Further, the “TAS2R14 bitter receptor activity” value at TAS2R14 is “induced”.

With `O=P([O-])([O-])O.[K+].[K+]` [potassium phosphate (dibasic)], the “TAS2R39 bitter receptor activity” value on TAS2R39 is recorded as “induced”. For the same compound, the “TAS2R44 bitter receptor activity” value on TAS2R44 [2] is reported as “induced”. In addition, the “TAS2R38 (PAV) bitter receptor activity” value at TAS2R38 (PAV) was “induced”. For the same compound, at TAS2R14, the “TAS2R14 bitter receptor activity” value is given as “induced”.

On to `C/C=C/C=C/C(=O)[O-].[K+]` [potassium sorbate], for which the “TAS2R39 bitter receptor activity” value at TAS2R39 is reported as “induced”. Also, on TAS2R44 [2], the “TAS2R44 bitter receptor activity” value was “induced”. Besides, the “TAS2R38 (PAV) bitter receptor activity” value on TAS2R38 (PAV) was “induced”. Further, the “TAS2R14 bitter receptor activity” value at TAS2R14 is given as “induced”.

`O=S(=O)([O-])[O-].[K+].[K+]` [potassium sulfate]: at TAS2R39, the “TAS2R39 bitter receptor activity” value was “induced”. Also, the “TAS2R44 bitter receptor activity” value on TAS2R44 [2] is on record as “induced”. Also, on TAS2R38 (PAV), the “TAS2R38 (PAV) bitter receptor activity” value is given as “induced”. In addition, at TAS2R14, the “TAS2R14 bitter receptor activity” value was “induced”.
